Assay results taken from patent US5093233A, “Antagonists with position 13 modification” (Merck & Co., Inc., priority 1990, dated 1992).
Square brackets hold non-standard residues; d marks the D form. Peptide text beside a SMILES is read from it. * marks the point of attachment. Hydrocinnamoyl = O=C(CCc1ccccc1)*; Nle = CCCC[C@H](N)C(=O)O; Hexanoyl = CCCCCC(=O)*

Target: T1, PTH receptor, bovine renal cortical plasma membranes (Bos taurus, UniProt Q1LZF7)
T1 construct: from tissue; host or cells: bovine renal cortex (plasma membrane preparation)
T1 sequence (Q1LZF7 29-589): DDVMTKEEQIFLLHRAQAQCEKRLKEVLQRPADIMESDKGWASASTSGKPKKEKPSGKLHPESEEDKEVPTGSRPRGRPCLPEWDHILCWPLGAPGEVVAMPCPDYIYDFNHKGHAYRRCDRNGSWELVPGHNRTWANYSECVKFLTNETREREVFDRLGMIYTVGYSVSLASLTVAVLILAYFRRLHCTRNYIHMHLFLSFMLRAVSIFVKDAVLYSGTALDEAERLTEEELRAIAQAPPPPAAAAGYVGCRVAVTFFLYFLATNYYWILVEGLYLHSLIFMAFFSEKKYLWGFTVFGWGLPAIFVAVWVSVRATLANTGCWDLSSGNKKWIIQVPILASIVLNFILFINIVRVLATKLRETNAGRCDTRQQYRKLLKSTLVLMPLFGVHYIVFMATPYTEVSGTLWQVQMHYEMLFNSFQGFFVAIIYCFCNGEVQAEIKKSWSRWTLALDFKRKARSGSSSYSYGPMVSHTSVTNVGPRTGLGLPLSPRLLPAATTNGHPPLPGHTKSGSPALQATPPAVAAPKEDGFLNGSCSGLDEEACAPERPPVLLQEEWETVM
Test: PTH binding assay in bovine renal membranes
Settings: radioligand [Nle8,18,125I-Tyr34]bPTH(1-34)NH2, 30 min at 21° C.
Protocol: PTH analogues were analyzed in a new receptor assay reported in Goldman et al., Endocrin. 123: 1468-1475 (1988). The binding assay used [Nle^8,18,^125 I-Tyr^34 ]bPTH (1-34)NH2 which was purified by HPLC (Novapak C18, 32-35% CH3 CN in 0.1% TFA) and was stored as aliquots in 25 mM TrisHCl/1%BSA at -70° C. Bovine renal cortical plasma membranes were incubated with radioligand (25,000 cpm) in a Tris-containing buffer (250 ul) for 30 min. at 21° C. Once equilibrium was reached, bound and free radioligand were separated by centrifugation. High specific binding (85%) to bovine renal cortical membranes was obtained consistently.

CCCC[C@H](NC(=O)[C@H](CO)NC(=O)[C@H](CO)NC(=O)[C@H](CC(C)C)NC(=O)[C@H](Cc1c[nH]cn1)NC(=O)[C@H](CCCCNC(=O)CCc1ccccc1)NC(=O)[C@@H](Cc1c[nH]c2ccccc12)NC(=O)[C@H](CC(C)C)NC(=O)[C@H](CC(N)=O)NC(=O)[C@H](Cc1c[nH]cn1)NC(=O)[C@H](CCCC)NC(=O)[C@@H](N)Cc1ccccc1)C(=O)N[C@@H](CCC(=O)O)C(=O)N[C@@H](CCCNC(=N)N)C(=O)N[C@H](C(=O)N[C@@H](CCC(=O)O)C(=O)N[C@@H](Cc1c[nH]c2ccccc12)C(=O)N[C@@H](CC(C)C)C(=O)N[C@@H](CCCNC(=N)N)C(=O)N[C@@H](CCCCN)C(=O)N[C@@H](CCCCN)C(=O)N[C@@H](CC(C)C)C(=O)N[C@@H](CCC(N)=O)C(=O)N[C@@H](CC(=O)O)C(=O)N[C@H](C(=O)N[C@@H](Cc1c[nH]cn1)C(=O)N[C@@H](CC(N)=O)C(=O)N[C@@H](Cc1ccc(O)cc1)C(N)=O)C(C)C)C(C)C [Structure 3, [Nle^8,18,D-Trp^12,Lys^13 (N^ε --CO(CH2)2 -Phenyl),Tyr^34]bPTH(7-34)NH2]
Kb: 4 ± 1 nM

CCCC[C@H](NC(=O)CCc1ccccc1)C(=O)N[C@@H](Cc1c[nH]cn1)C(=O)N[C@@H](CC(N)=O)C(=O)N[C@@H](CC(C)C)C(=O)N[C@H](Cc1c[nH]c2ccccc12)C(=O)N[C@@H](CCCCNC(=O)CCc1ccccc1)C(=O)N[C@@H](Cc1c[nH]cn1)C(=O)N[C@@H](CC(C)C)C(=O)N[C@@H](CO)C(=O)N[C@@H](CO)C(=O)N[C@@H](CCCC)C(=O)N[C@@H](CCC(=O)O)C(=O)N[C@@H](CCCNC(=N)N)C(=O)N[C@H](C(=O)N[C@@H](CCC(=O)O)C(=O)N[C@@H](Cc1c[nH]c2ccccc12)C(=O)N[C@@H](CC(C)C)C(=O)N[C@@H](CCCNC(=N)N)C(=O)N[C@@H](CCCCN)C(=O)N[C@@H](CCCCN)C(=O)N[C@@H](CC(C)C)C(=O)N[C@@H](CCC(N)=O)C(=O)N[C@@H](CC(=O)O)C(=O)N[C@H](C(=O)N[C@@H](Cc1c[nH]cn1)C(=O)N[C@@H](CC(N)=O)C(=O)N[C@@H](Cc1ccc(O)cc1)C(N)=O)C(C)C)C(C)C [Structure 1, desamino[Nle^8,18,D-Trp^12,Lys^13 (N^ε --CO(CH2)2 -Phenyl),Tyr^34]bPTH(7-34)NH2] (Hydrocinnamoyl-[Nle]HNL[dW]K(Hydrocinnamoyl)HLSS[Nle]ERVEWLRKKLQDVHNY-NH2)
Kb: 13 ± 2 nM

CCCC[C@H](NC(=O)[C@H](CO)NC(=O)[C@H](CO)NC(=O)[C@H](CC(C)C)NC(=O)[C@H](Cc1c[nH]cn1)NC(=O)[C@H](CCCCN(CC(C)C)CC(C)C)NC(=O)[C@@H](Cc1c[nH]c2ccccc12)NC(=O)[C@H](CC(C)C)NC(=O)[C@H](CC(N)=O)NC(=O)[C@H](Cc1c[nH]cn1)NC(=O)[C@H](CCCC)NC(=O)[C@@H](N)Cc1ccccc1)C(=O)N[C@@H](CCC(=O)O)C(=O)N[C@@H](CCCNC(=N)N)C(=O)N[C@H](C(=O)N[C@@H](CCC(=O)O)C(=O)N[C@@H](Cc1c[nH]c2ccccc12)C(=O)N[C@@H](CC(C)C)C(=O)N[C@@H](CCCNC(=N)N)C(=O)N[C@@H](CCCCN)C(=O)N[C@@H](CCCCN)C(=O)N[C@@H](CC(C)C)C(=O)N[C@@H](CCC(N)=O)C(=O)N[C@@H](CC(=O)O)C(=O)N[C@H](C(=O)N[C@@H](Cc1c[nH]cn1)C(=O)N[C@@H](CC(N)=O)C(=O)N[C@@H](Cc1ccc(O)cc1)C(N)=O)C(C)C)C(C)C [Structure 4, [Nle^8,18,D-Trp^12,Lys^13 (N^ε,N^ε -diisobutyl),Tyr^34]bPTH(7-34)NH2]
Kb: 35 ± 4 nM

CCCCCC(=O)N[C@@H](Cc1c[nH]cn1)C(=O)N[C@@H](CC(N)=O)C(=O)N[C@@H](CC(C)C)C(=O)N[C@H](Cc1c[nH]c2ccccc12)C(=O)N[C@@H](CCCCNC(=O)CCc1ccccc1)C(=O)N[C@@H](Cc1c[nH]cn1)C(=O)N[C@@H](CC(C)C)C(=O)N[C@@H](CO)C(=O)N[C@@H](CO)C(=O)N[C@@H](CCCC)C(=O)N[C@@H](CCC(=O)O)C(=O)N[C@@H](CCCNC(=N)N)C(=O)N[C@H](C(=O)N[C@@H](CCC(=O)O)C(=O)N[C@@H](Cc1c[nH]c2ccccc12)C(=O)N[C@@H](CC(C)C)C(=O)N[C@@H](CCCNC(=N)N)C(=O)N[C@@H](CCCCN)C(=O)N[C@@H](CCCCN)C(=O)N[C@@H](CC(C)C)C(=O)N[C@@H](CCC(N)=O)C(=O)N[C@@H](CC(=O)O)C(=O)N[C@H](C(=O)N[C@@H](Cc1c[nH]cn1)C(=O)N[C@@H](CC(N)=O)C(=O)N[C@@H](Cc1ccc(O)cc1)C(N)=O)C(C)C)C(C)C [Structure 2, desamino[Nle^8,18,D-Trp^12,Lys^13 (N^ε --CO(CH2)2 -Phenyl),Tyr^34]bPTH(8-34)NH2] (Hexanoyl-HNL[dW]K(Hydrocinnamoyl)HLSS[Nle]ERVEWLRKKLQDVHNY-NH2)
Kb: 4 ± 1 nM
